Test systems include CCRF-CEM leukemia; COLO 205 colon; HT29 colon; KM12 colon; MDA-MB-435; NCI-H23 lung; OVCAR-5 ovarian; RPMI-8226 leukemia; SNB-19 CNS; UACC-257 melanoma.
Common to all, as to test: inhibition of tumour cell growth, NCI panel, 48 h

Each structure is given as a SMILES string.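 Cells were grown in 96-well plates and exposed to each compound for 48 hours at five concentrations; endpoints were interpolated linearly between bracketing concentrations, or set to the highest concentration if not reached. At the GI50, growth is halved. TGI is the concentration that stops growth completely.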

As for `CC(C)N(CC(=O)O)CC(=O)O`, the TGI with CCRF-CEM leukemia, with COLO 205 colon, in the experiment with HT29 colon, with KM12 colon, in the experiment with MDA-MB-435 and in the experiment on NCI-H23 lung was > 100 µM throughout. The TGI with OVCAR-5 ovarian, with RPMI-8226 leukemia, in the experiment with SNB-19 CNS and with UACC-257 melanoma was > 100 µM throughout.
Regarding `O=C1c2cc3c(cc2[C@@H]2C(O)[C@H]4O[C@H]4C4CCN1C42)OCO3` (stereo partly drawn), the TGI in the experiment with CCRF-CEM leukemia, in the experiment with COLO 205 colon, with HT29 colon, with KM12 colon, with OVCAR-5 ovarian and in the experiment with RPMI-8226 leukemia was > 37.5 µM each time. Besides, the TGI in the experiment with SNB-19 CNS is > 37.5 µM.
In the case of `C[C@@]12CC[C@@H](O)C[C@@H]1CC[C@H]1[C@H]2CC[C@@]2(C)[C@H](c3ccc(=O)oc3)CC[C@@]12O`, the GI50 was < 0.01 µM in the experiment on HT29 colon; < 0.0123 µM in the experiment with KM12 colon; < 0.01 µM in the experiment on MDA-MB-435; < 0.01 µM in the experiment on NCI-H23 lung; 0.0132 µM in the experiment on OVCAR-5 ovarian; < 0.01 µM in the experiment on RPMI-8226 leukemia. Further, the GI50 in the experiment with SNB-19 CNS was < 0.0104 µM; with UACC-257 melanoma, < 0.0135 µM. The TGI with HT29 colon is 0.0467 µM; in the experiment with KM12 colon, 0.153 µM; in the experiment with MDA-MB-435, 0.0587 µM; in the experiment with NCI-H23 lung, 0.0226 µM; with OVCAR-5 ovarian, 0.0426 µM; with SNB-19 CNS, 0.0755 µM. In the experiment with UACC-257 melanoma, this compound displayed a TGI of 0.0467 µM.
Turning to `O=C(c1ccccc1)c1ccc(N2C(=O)/C(=C/c3cccc(Oc4ccccc4)c3)N=C2c2ccccc2)c(N2C(=O)/C(=C/c3cccc(Oc4ccccc4)c3)N=C2c2ccccc2)c1`, the TGI was > 100 µM with CCRF-CEM leukemia; 37.1 µM in the experiment with COLO 205 colon; > 100 µM with HT29 colon; > 100 µM with KM12 colon; 31.5 µM with MDA-MB-435; > 100 µM in the experiment with NCI-H23 lung. The TGI was > 100 µM in the experiment on OVCAR-5 ovarian, 96.4 µM with RPMI-8226 leukemia, > 100 µM in the experiment on SNB-19 CNS and 71.7 µM in the experiment on UACC-257 melanoma.
Turning to `CCOC(=O)C(C(=O)OCC)c1cc(-c2cc3ccccc3o2)oc(=O)c1C#N`, the TGI with CCRF-CEM leukemia was > 100 µM; in the experiment with COLO 205 colon it was 48.7 µM; in the experiment with HT29 colon it was 35 µM; with KM12 colon, > 100 µM; in the experiment with NCI-H23 lung it was 36.7 µM; with OVCAR-5 ovarian it was 33.1 µM. Further, the TGI with RPMI-8226 leukemia was > 100 µM; with SNB-19 CNS, > 100 µM; in the experiment on UACC-257 melanoma, 76.4 µM.
Turning to `NC1=NC(c2ccc(Cl)cc2)=CC(c2cccc(Cl)c2)S1` (stereo not drawn), the TGI in the experiment on CCRF-CEM leukemia was > 100 µM; in the experiment on COLO 205 colon it was 33.1 µM; in the experiment with HT29 colon, > 100 µM; in the experiment with KM12 colon, > 100 µM; in the experiment with MDA-MB-435, 38.9 µM; in the experiment with NCI-H23 lung, > 100 µM. For the same compound, the TGI was > 100 µM in the experiment on OVCAR-5 ovarian, 44 µM in the experiment with RPMI-8226 leukemia, 44.9 µM in the experiment on SNB-19 CNS and 81.7 µM in the experiment with UACC-257 melanoma.
In the case of `CC(C)=CCC/C(C)=C/Cc1c2c(c3oc(-c4ccc(O)c(O)c4)c(O)c(=O)c3c1O)C=CC(C)(C)O2`, the TGI came out at 8.82 µM in the experiment on CCRF-CEM leukemia; 5.33 µM in the experiment on COLO 205 colon; 9.79 µM in the experiment with HT29 colon; 9.89 µM in the experiment with KM12 colon; 12.6 µM in the experiment on MDA-MB-435; 11.6 µM in the experiment with NCI-H23 lung. In addition, the TGI in the experiment on OVCAR-5 ovarian is 15.1 µM; in the experiment on RPMI-8226 leukemia it was 9.93 µM; in the experiment with SNB-19 CNS, 12.5 µM; in the experiment with UACC-257 melanoma it was 11.2 µM.
`COc1ccc2c(O)c1-c1c(OC)ccc(c1O)SSc1ccc(OC)c(c1O)-c1c(OC)ccc(c1O)SS2`: the TGI in the experiment with CCRF-CEM leukemia, in the experiment with COLO 205 colon, in the experiment with HT29 colon, in the experiment on KM12 colon, with MDA-MB-435 and in the experiment with OVCAR-5 ovarian was > 100 µM in each case. In addition, the TGI in the experiment with RPMI-8226 leukemia is 7.07 µM; in the experiment on SNB-19 CNS, > 100 µM; in the experiment with UACC-257 melanoma it was > 100 µM.
For the compound `CN(C)CCC(=O)[C@@]1(O)CC[C@H]2[C@@H]3CC=C4C[C@@H](O)CC[C@]4(C)[C@H]3CC[C@@]21C`, the TGI was > 55.7 µM in the experiment on CCRF-CEM leukemia; 32.9 µM in the experiment on COLO 205 colon; 37.5 µM with HT29 colon; 45.3 µM in the experiment with KM12 colon; 45.5 µM in the experiment on MDA-MB-435; 56.1 µM in the experiment with NCI-H23 lung. In addition, the TGI was > 100 µM in the experiment with OVCAR-5 ovarian, 7.01 µM in the experiment on RPMI-8226 leukemia, > 64.8 µM in the experiment with SNB-19 CNS and 26.1 µM with UACC-257 melanoma.
For `COc1cc2cc(C(=O)N3CC(CCl)c4ccc(NO)cc43)[nH]c2c(OC)c1OC` (stereo not drawn), the TGI with CCRF-CEM leukemia turned out to be 1.16 µM; in the experiment with COLO 205 colon it was 2.04 µM; in the experiment with HT29 colon it was 11.8 µM; in the experiment with KM12 colon, 16.3 µM; with MDA-MB-435, 0.481 µM; with NCI-H23 lung, 0.166 µM. In addition, the results for the TGI in the experiment on OVCAR-5 ovarian, with RPMI-8226 leukemia and with SNB-19 CNS were > 37.2 µM, 0.442 µM and 11.1 µM, respectively.
With `Cc1ccc(C(=O)NC2C(=O)NC(C(C)C)C(=O)N3CCCC3C(=O)N(C)CC(=O)N(C)C(C(C)C)C(=O)OC2C)c2c1Oc1c(c(C(=O)NC3C(=O)NC(C(C)C)C(=O)N4CCCC4C(=O)N(C)CC(=O)N(C)C(C(C)C)C(=O)OC3C)c3nc(-c4ccccc4)c(=O)oc3c1C)N2` (stereo not drawn), the TGI in the experiment on CCRF-CEM leukemia is 0.697 µM; in the experiment on COLO 205 colon it was 0.0295 µM; in the experiment on KM12 colon it was 0.00317 µM; in the experiment with MDA-MB-435, 0.0193 µM; in the experiment on NCI-H23 lung, 0.0919 µM; with OVCAR-5 ovarian, 0.00918 µM. The TGI was determined as 0.0442 µM in the experiment on RPMI-8226 leukemia, 21.4 µM in the experiment with SNB-19 CNS and 0.122 µM in the experiment on UACC-257 melanoma.
In the case of `CCCCC(CC)C(=O)Oc1ccc(C(=O)c2ccccc2)c(O)c1` (stereo not drawn), the TGI in the experiment with CCRF-CEM leukemia, in the experiment on COLO 205 colon, in the experiment with HT29 colon, in the experiment on KM12 colon, with MDA-MB-435 and in the experiment on NCI-H23 lung was > 100 µM in each case. The TGI in the experiment on OVCAR-5 ovarian, with RPMI-8226 leukemia, with SNB-19 CNS and in the experiment with UACC-257 melanoma was > 100 µM each time.

Source of the values: PubChem BioAssay (NCI).
